In ChEMBL document CHEMBL3351488, “Design, synthesis and biological evaluation of novel arylpiperazine derivatives on human prostate cancer cell lines” (Bioorg Med Chem Lett, 2015) one finds IC50 data, which are given here for 26 compounds.

The test system of one test is LNCaP. Briefly: Cytotoxicity against human LNCAP cells assessed as inhibition of cell viability after 24 hrs by CCK-8 assay. The test is classed as functional, cell-based. A general note: Tetrazolium assays rely on reduction of a dye to a coloured formazan, in cell work by metabolically active cells.
The next test concerns DU-145. Briefly: Cytotoxicity against human DU145 cells assessed as inhibition of cell viability after 24 hrs by CCK-8 assay. The settings on record: DU-145, 24 h. The class given is functional, cell-based.
Test [1] in a line: Cytotoxicity against human PC3 cells assessed as inhibition of cell viability after 24 hrs by CCK-8 assay. The test is classed as functional, cell-based. The settings on record: PC-3, 24 h.
Test [2] can be described thus: Cytotoxicity against human RWPE1 cells assessed as inhibition of cell viability after 24 hrs by CCK-8 assay. The class given is cell-based. To be noted: RWPE-1, 24 h.

On to `COc1cc(OC)cc(OCc2ccc(CCN3CCN(c4ccccc4C)CC3)cc2)c1`, for which the IC50 was determined as 35.8 µM with LNCaP, 19.3 µM in the test on DU-145, 30.2 µM in test [1] and 35.6 µM in test [2].

As to `COc1cc(OC)cc(OCc2ccc(CCN3CCN(c4ccccc4)CC3)cc2)c1`, the concentration for half-maximal inhibition (IC50) was over 50 µM in the test with LNCaP, 25 µM in the test on DU-145, 31.2 µM in test [1] and over 50 µM in test [2].

In the case of `COc1cc(OC)cc(OCc2ccc(CCN3CCN(c4ccccn4)CC3)cc2)c1`, the IC50 was 42.3 µM in the test on LNCaP, 16.8 µM in the test on DU-145, 25.6 µM in test [1] and over 50 µM in test [2].

Regarding `COc1cc(OC)cc(OCc2ccc(CCN3CCN(Cc4ccccc4)CC3)cc2)c1`, the IC50 with LNCaP is 6.07 µM; with DU-145, 5.83 µM; in test [1], 6.79 µM; in test [2] it was over 50 µM.

`COc1cc(OC)cc(OCc2ccc(CCN3CCN(c4ccc(C)cc4)CC3)cc2)c1`: the IC50 is 35.2 µM with LNCaP, 24.1 µM with DU-145, 48.2 µM in test [1] and over 50 µM in test [2].

Regarding `COc1cc(OC)cc(OCc2ccc(CCN3CCN(c4cccc(C)c4)CC3)cc2)c1`, the IC50 in the test on LNCaP was 2.35 µM; with DU-145, 28.6 µM; in test [1], 30.6 µM; in test [2], over 50 µM.

Regarding `COc1cc(OC)cc(OCc2ccc(CCN3CCN(c4cc(C)ccc4C)CC3)cc2)c1`, the IC50 was 36.1 µM with LNCaP, 27.6 µM with DU-145, 31 µM in test [1] and over 50 µM in test [2].

For `COc1cc(OC)cc(OCc2ccc(CCN3CCN(c4ccccc4OC)CC3)cc2)c1`, the IC50 in the test on LNCaP amounted to 26.3 µM; with DU-145, 30.5 µM; in test [1], 26.5 µM; in test [2], 28.8 µM.

Take `CCOc1ccccc1N1CCN(CCc2ccc(COc3cc(OC)cc(OC)c3)cc2)CC1`: the IC50 is over 50 µM in the test on LNCaP, 27.2 µM in the test on DU-145, 27.1 µM in test [1] and over 50 µM in test [2].

Turning to `COc1ccc(N2CCN(CCc3ccc(COc4cc(OC)cc(OC)c4)cc3)CC2)cc1`, the IC50 is over 50 µM with LNCaP, 19.2 µM in the test with DU-145, 32.9 µM in test [1] and over 50 µM in test [2].

For `COc1cc(OC)cc(OCc2ccc(CCN3CCN(c4cccc(OC)c4)CC3)cc2)c1`, the IC50 with LNCaP was found to be 20 µM; in the test with DU-145 it was 16.9 µM; in test [1] it was 25.3 µM; in test [2] it was 39.9 µM.

Regarding `COc1cc(OC)cc(OCc2ccc(CCN3CCN(c4cc(Cl)ccc4OC)CC3)cc2)c1`, the IC50 was 39.8 µM in the test on LNCaP, 26.7 µM in the test on DU-145, 27.1 µM in test [1] and over 50 µM in test [2].

On to `COc1cc(OC)cc(OCc2ccc(CCN3CCN(c4ccccc4F)CC3)cc2)c1`, for which the IC50 in the test on LNCaP stood at 7.25 µM; in the test with DU-145, 25.4 µM; in test [1], 25.3 µM; in test [2], 35.4 µM.

`COc1cc(OC)cc(OCc2ccc(CCN3CCN(c4ccc(F)cc4)CC3)cc2)c1`: the IC50 in the test on LNCaP was 35 µM; in the test with DU-145 it was 28.2 µM; in test [1], 28.8 µM; in test [2], over 50 µM.

Turning to `COc1cc(OC)cc(OCc2ccc(CCN3CCN(c4ccc(F)cc4F)CC3)cc2)c1`, the IC50 was over 50 µM in the test on LNCaP, 24.2 µM in the test with DU-145, 35.4 µM in test [1] and over 50 µM in test [2].

On to `COc1cc(OC)cc(OCc2ccc(CCN3CCN(c4ccccc4Cl)CC3)cc2)c1`, for which the IC50 in the test with LNCaP was 32.5 µM; in the test with DU-145, 23.2 µM; in test [1], 25.2 µM; in test [2], over 50 µM.

In the case of `COc1cc(OC)cc(OCc2ccc(CCN3CCN(c4ccc(Cl)cc4)CC3)cc2)c1`, the IC50 is over 50 µM with LNCaP, 12.7 µM in the test on DU-145, 18.9 µM in test [1] and over 50 µM in test [2].

Consider `COc1cc(OC)cc(OCc2ccc(CCN3CCN(c4cccc(Cl)c4)CC3)cc2)c1`, for which the IC50 in the test with LNCaP was 36.6 µM; with DU-145, 27.1 µM; in test [1], 30.9 µM; in test [2], over 50 µM.

For `COc1cc(OC)cc(OCc2ccc(CCN3CCN(c4cccc(Cl)c4Cl)CC3)cc2)c1`, the IC50 with LNCaP was over 50 µM; with DU-145 it was 30.2 µM; in test [1], 18.4 µM; in test [2] it was 36.6 µM.

For the compound `COc1cc(OC)cc(OCc2ccc(CCN3CCN(c4cc(Cl)ccc4C)CC3)cc2)c1`, the IC50 with LNCaP came to 2.73 µM; in the test with DU-145 it was 28 µM; in test [1], 32.2 µM; in test [2] it was 36.5 µM.

With `COc1cc(OC)cc(OCc2ccc(CCN3CCN(c4ccc(Br)cc4)CC3)cc2)c1`, the IC50 is over 50 µM in the test on LNCaP, 29.5 µM in the test on DU-145, 25.6 µM in test [1] and over 50 µM in test [2].

`COc1cc(OC)cc(OCc2ccc(CCN3CCN(c4ccccc4C(F)(F)F)CC3)cc2)c1`: the IC50 with LNCaP was over 50 µM; in the test on DU-145 it was 39.2 µM; in test [1], 40.3 µM; in test [2], over 50 µM.

For `COc1cc(OC)cc(OCc2ccc(CCN3CCN(c4ccc(C(F)(F)F)cc4)CC3)cc2)c1`, the IC50 was over 50 µM with LNCaP, 28.5 µM in the test with DU-145, 23.8 µM in test [1] and over 50 µM in test [2].

With `COc1cc(OC)cc(OCc2ccc(CCN3CCN(c4ccc(C#N)cc4)CC3)cc2)c1`, the concentration for half-maximal inhibition (IC50) is over 50 µM in the test on LNCaP, 46.3 µM in the test on DU-145, 27.6 µM in test [1] and 45.8 µM in test [2].

For `COc1cc(OC)cc(OCc2ccc(CCN3CCN(c4ccccc4S(C)(=O)=O)CC3)cc2)c1`, the IC50 in the test on LNCaP was 0.97 µM; in the test on DU-145 it was 7.68 µM; in test [1], 9.42 µM; in test [2], over 50 µM.

Take `COc1ccccc1N1CCN(CC(O)COc2cccc3ccccc23)CC1` (centres undefined) [NAFTOPIDIL]: the IC50 was 22.4 µM in the test with LNCaP, 34.6 µM with DU-145, 42.1 µM in test [1] and over 50 µM in test [2].

The term IC50 denotes the concentration at which inhibition is half-maximal.
